# Values of other authors in US20040185009A1, “Composition and device for treating periodontal diseases” (DEXCEL PHARMA TECHNOLOGIES LTD., priority 2003, published 2004).
# Experiments:
# periodontal disease [1] = conditions: 24 months, FBP-treated patient group
# periodontal disease [2] = conditions: 100 mg/day for two months
smiles,measurement,setting,value
"CC(C(=O)O)c1ccc(-c2ccccc2)c(F)c1 (centres unmarked) [FBP, Flurbiprofen]",Effect on bone loss,periodontal disease [1],reduction in bone loss
same,"Effect on bone metabolism (standardized radiography, radiopharmaceutical uptake)",periodontal disease [2],increased bone metabolism
